Results reported in US20260069571A1, “DDR1 AND DDR2 INHIBITORS FOR THE TREATEMENT OF CANCER AND FIBROTIC DISEASES” (REDX PHARMA PLC, priority 2021, published 2026).

Columns and labels:
Recombinant human DDR1 = Recombinant human DDR1 (Homo sapiens (Human), UniProt Q08345); assay: LanthaScreen Eu Kinase Binding Assay, DDR1; settings: DDR1 2.5 nM (aa440-876, GST tag), Kinase Tracer 178 5 nM; for IC50: read-out: DDR1 pIC50 (converted)
Experimental: (§1) DDR1 and DDR2 Biochemical Assay Method
(§2) The capacity of compounds to bind to DDR1 and DDR2 was quantified using a LanthaScreen Eu Kinase Binding Assay. Recombinant human DDR1 (2.5 nM; aa440-876 containing a GST tag) and DDR2 (1.75 nM; aa427-855 containing a GST tag) were diluted in assay buffer (50 mM HEPES pH7.3, 10 mM MgCl2, 1 mM EGTA and 0.01% Tween) with various concentrations of compound in a 384-well plate and a volume of 5 uL. After a 30-minute incubation at room temperature, 2.5 uL of Eu-anti GST antibody (diluted to 1 nM in assay buffer) plus Kinase Tracer 178 (diluted in assay buffer to 5 nM for DDR1 and 10 nM for DDR2) were added to the plate. Following 60-minute incubation at room temperature, time-resolved fluorescence was measured on a BMG Labtech PHERAstar plate reader. DMSO (1%) and reference compound (1 μM) were used to generate the Max and Min assay signals, respectively. Data was analysed using a four-parameter logistic model to calculate IC50 values, with at least two independent replicates were performed for each compound.

Recombinant human DDR2 = Recombinant human DDR2 (Homo sapiens (Human), UniProt Q16832); assay: LanthaScreen Eu Kinase Binding Assay, DDR2; settings: DDR2 1.75 nM (aa427-855, GST tag), Kinase Tracer 178 10 nM; for IC50: read-out: DDR2 pIC50 (converted)
Experimental: as §1, §2

Sequence of Recombinant human DDR2 (Q16832 427-855): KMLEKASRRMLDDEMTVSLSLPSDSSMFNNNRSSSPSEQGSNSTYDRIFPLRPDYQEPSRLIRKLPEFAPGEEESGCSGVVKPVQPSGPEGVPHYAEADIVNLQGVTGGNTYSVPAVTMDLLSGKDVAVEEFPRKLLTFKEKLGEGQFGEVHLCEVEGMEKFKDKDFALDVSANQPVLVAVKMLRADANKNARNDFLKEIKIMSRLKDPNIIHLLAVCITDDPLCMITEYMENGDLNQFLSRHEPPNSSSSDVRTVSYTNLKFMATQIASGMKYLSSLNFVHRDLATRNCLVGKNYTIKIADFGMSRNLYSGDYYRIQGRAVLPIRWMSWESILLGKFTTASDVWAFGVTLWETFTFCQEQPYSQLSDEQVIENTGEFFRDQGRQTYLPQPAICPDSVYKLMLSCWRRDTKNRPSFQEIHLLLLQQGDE
Sequence of Recombinant human DDR1 (Q08345 other isoform, or with tags, fused parts or gaps): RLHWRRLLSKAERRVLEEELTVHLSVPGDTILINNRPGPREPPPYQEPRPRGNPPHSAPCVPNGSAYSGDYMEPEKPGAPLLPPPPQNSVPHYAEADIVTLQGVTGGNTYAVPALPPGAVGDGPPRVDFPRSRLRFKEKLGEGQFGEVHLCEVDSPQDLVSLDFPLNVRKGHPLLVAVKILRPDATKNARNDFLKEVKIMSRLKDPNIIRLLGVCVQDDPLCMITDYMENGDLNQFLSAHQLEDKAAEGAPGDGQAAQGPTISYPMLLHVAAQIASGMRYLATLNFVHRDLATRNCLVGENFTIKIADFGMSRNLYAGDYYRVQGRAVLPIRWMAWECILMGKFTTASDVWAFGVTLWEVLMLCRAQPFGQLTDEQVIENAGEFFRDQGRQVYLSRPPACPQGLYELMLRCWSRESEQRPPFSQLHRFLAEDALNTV

SMILES	DDR1 pIC50 (Recombinant human DDR1)	DDR2 pIC50 (Recombinant human DDR2)	IC50 (Recombinant human DDR1) [nM]	IC50 (Recombinant human DDR2) [nM]
Cn1ncc2cc(Nc3cccc4c3C(=O)N(CC(=O)NCC(F)(F)F)C4)cc(Cl)c21 [Example 27, 2-[7-[(7-chloro-1-methyl-indazol-5-yl)amino]-1-oxo-isoindolin-2-yl]-N-(2,2,2-trifluoroethyl)acetamide]	A (pIC50>8)	A (pIC50>8)	–	–
Cc1n[nH]c2cc(Nc3cccc4c3C(=O)N(CC(=O)N[C@@H](C)C(F)(F)F)C4)ccc12 [Example 28, 2-[7-[(3-methyl-1H-indazol-6-yl)amino]-1-oxo-isoindolin-2-yl]-N-[(1S)-2,2,2-trifluoro-1-methyl-ethyl]acetamide]	A (pIC50>8)	A (pIC50>8)	–	–
Cc1n[nH]c2cc(Nc3cccc4c3C(=O)N(CC(=O)NCC(F)(F)F)C4)cnc12 [Example 30, 2-[7-[(3-methyl-1H-pyrazolo[4,3-b]pyridin-6-yl)amino]-1-oxo-isoindolin-2-yl]-N-(2,2,2-trifluoroethyl)acetamide]	A (pIC50>8)	–	–	10 to 100
Cc1n[nH]c2cc(Nc3cccc4c3C(=O)N(CC(=O)N3CCCC(C(F)(F)F)C3)C4)ccc12 (stereo not shown) [Example 32, 7-[(3-methyl-1H-indazol-6-yl)amino]-2-[2-oxo-2-[3-(trifluoromethyl)-1-piperidyl]ethyl]isoindolin-1-one]	A (pIC50>8)	A (pIC50>8)	–	–
Cc1n[nH]c2cc(Nc3cccc4c3C(=O)N(CC(=O)N3CCC[C@H]3CF)C4)ccc12 [Example 33, 2-[2-[(2S)-(fluoromethyl)pyrrolidin-1-yl]-2-oxo-ethyl]-7-[(3-methyl-1H-indazol-6-yl)amino]isoindolin-1-one]	A (pIC50>8)	A (pIC50>8)	–	–
Cc1n[nH]c2cc(Nc3cccc4c3C(=O)N(CC(=O)N3CC(C(F)(F)F)C3)C4)ccc12 [Example 34, 7-[(3-methyl-1H-indazol-6-yl)amino]-2-[2-oxo-2-[3-(trifluoromethyl)azetidin-1-yl]ethyl]isoindolin-1-one]	–	–	10 to 100	10 to 100
Cc1n[nH]c2cc(Nc3cccc4c3C(=O)N(CC(=O)NC3CC3(F)F)C4)ccc12 (stereo not shown) [Example 36, N-(2,2-difluorocyclopropyl)-2-[7-[(3-methyl-1H-indazol-6-yl)amino]-1-oxo-isoindolin-2-yl]acetamide]	A (pIC50>8)	A (pIC50>8)	–	–
Cc1n[nH]c2cc(Nc3cccc4c3C(=O)N(CC(=O)Nc3ccc(CN(C)C)c(C(F)(F)F)c3)C4)ccc12 [Example 37, N-[4-[(dimethylamino)methyl]-3-(trifluoromethyl)phenyl]-2-[7-[(3-methyl-1H-indazol-6-yl)amino]-1-oxo-isoindolin-2-yl]acetamide]	A (pIC50>8)	–	–	10 to 100
Cc1n[nH]c2cc(Nc3cccc4c3C(=O)N(CC(=O)N3CCOC(C(F)(F)F)C3)C4)ccc12 (stereo not shown) [Example 38, 7-[(3-methyl-1H-indazol-6-yl)amino]-2-[2-oxo-2-[2-(trifluoromethyl)morpholin-4-yl]ethyl]isoindolin-1-one]	A (pIC50>8)	–	–	10 to 100
Cc1n[nH]c2cc(Nc3cccc4c3C(=O)N(CC(=O)Nc3cc(CN(C)C)cc(C(F)(F)F)c3)C4)ccc12 [Example 39, N-[3-[(dimethylamino)methyl]-5-(trifluoromethyl)phenyl]-2-[7-[(3-methyl-1H-indazol-6-yl)amino]-1-oxo-isoindolin-2-yl]acetamide]	A (pIC50>8)	–	–	10 to 100
Cc1n[nH]c2cc(Nc3cccc4c3C(=O)N(CC(=O)Nc3cnoc3)C4)ccc12 [Example 40, N-isoxazol-4-yl-2-[7-[(3-methyl-1H-indazol-6-yl)amino]-1-oxo-isoindolin-2-yl]acetamide]	A (pIC50>8)	A (pIC50>8)	–	–
Cc1n[nH]c2cc(Nc3cccc4c3C(=O)N(CC(=O)N3CCC[C@H]3C(F)F)C4)ccc12 [Example 41, 7-[(3-methyl-1H-indazol-6-yl)amino]-2-[2-oxo-2-[(2S)-(difluoromethyl)pyrrolidin-1-yl]ethyl]isoindolin-1-one]	A (pIC50>8)	A (pIC50>8)	–	–
Cc1n[nH]c2cc(Nc3cccc4c3C(=O)N(CC(=O)N(C)CC(F)(F)F)C4)ccc12 [Example 46, N-methyl-2-[7-[(3-methyl-1H-indazol-6-yl)amino]-1-oxo-isoindolin-2-yl]-N-(2,2,2-trifluoroethyl)acetamide]	A (pIC50>8)	A (pIC50>8)	–	–
Cc1n[nH]c2cc(Nc3cccc4c3C(=O)N(CC(=O)N3CCO[C@@H](C(F)(F)F)C3)C4)ccc12 [Example 47, 7-[(3-methyl-1H-indazol-6-yl)amino]-2-[2-oxo-2-[(2R)-(trifluoromethyl)morpholin-4-yl]ethyl]isoindolin-1-one]	A (pIC50>8)	–	–	10 to 100
Cn1ncc2cc(Nc3cccc4c3C(=O)N(CC(=O)NC3CC3(F)F)C4)cnc21 (stereo not shown) [Example 52, N-(2,2-difluorocyclopropyl)-2-[7-[(1-methylpyrazolo[3,4-b]pyridin-5-yl)amino]-1-oxo-isoindolin-2-yl]acetamide]	–	–	10 to 100	100 to 1000
C[C@H](NC(=O)CN1Cc2cccc(Nc3cnc4c(cnn4C)c3)c2C1=O)C(F)(F)F [Example 53, 2-[7-[(1-methylpyrazolo[3,4-b]pyridin-5-yl)amino]-1-oxo-isoindolin-2-yl]-N-[(1S)-2,2,2-trifluoro-1-methyl-ethyl]acetamide]	A (pIC50>8)	–	–	10 to 100

Other lines, results leading:

DDR1 pIC50 (Recombinant human DDR1)	DDR2 pIC50 (Recombinant human DDR2)	IC50 (Recombinant human DDR1) [nM]	IC50 (Recombinant human DDR2) [nM]	SMILES
–	–	< 10	< 10	Cc1n[nH]c2cc(Nc3cccc4c3C(=O)N(CC(=O)N3CCC[C@H]3C(F)(F)F)C4)ccc12 [Example 29, 7-[(3-methyl-1H-indazol-6-yl)amino]-2-[2-oxo-2-[(2S)-(trifluoromethyl)77yrrolidine-1-yl]ethyl]isoindolin-1-one]
A (pIC50>8)	–	–	10 to 100	Cn1ncc2cc(Nc3cccc4c3C(=O)N(CC(=O)N3CCOCC3C(F)(F)F)C4)ccc21 (stereo not shown) [Example 31, 7-[(1-methylindazol-5-yl)amino]-2-[2-oxo-2-[3-(trifluoromethyl)morpholin-4-yl]ethyl]isoindolin-1-one]
–	–	< 10	< 10	Cc1n[nH]c2cc(Nc3cccc4c3C(=O)N(CC(=O)N3CCCC[C@H]3C(F)(F)F)C4)ccc12 [Example 42, 7-[(3-methyl-1H-indazol-6-yl)amino]-2-[2-oxo-2-[(2S)-(trifluoromethyl)-1-piperidyl]ethyl]isoindolin-1-one]
A (pIC50>8)	–	–	10 to 100	CN(CC(F)(F)F)C(=O)CN1Cc2cccc(Nc3ccc4c(cnn4C)c3)c2C1=O [Example 43, N-methyl-2-[7-[(1-methylindazol-5-yl)amino]-1-oxo-isoindolin-2-yl]-N-(2,2,2-trifluoroethyl)acetamide]
–	–	10 to 100	100 to 1000	Cn1ncc2cc(Nc3cccc4c3C(=O)N(CC(=O)N3CCOC[C@H]3C(F)(F)F)C4)ccc21 [Example 44, 7-[(1-methylindazol-5-yl)amino]-2-[2-oxo-2-[(3S)-(trifluoromethyl)morpholin-4-yl]ethyl]isoindolin-1-one]
–	–	< 10	10 to 100	Cn1ncc2cc(Nc3cccc4c3C(=O)N(CC(=O)N3CCOC[C@@H]3C(F)(F)F)C4)ccc21 [Example 45, 7-[(1-methylindazol-5-yl)amino]-2-[2-oxo-2-[(3R)-(trifluoromethyl)morpholin-4-yl]ethyl]isoindolin-1-one]
A (pIC50>8)	–	–	10 to 100	Cc1n[nH]c2cc(Nc3cccc4c3C(=O)N(CC(=O)N3CCO[C@H](C(F)(F)F)C3)C4)ccc12 [Example 48, 7-[(3-methyl-1H-indazol-6-yl)amino]-2-[2-oxo-2-[(2S)-(trifluoromethyl)morpholin-4-yl]ethyl]isoindolin-1-one]
A (pIC50>8)	A (pIC50>8)	–	–	Cn1ncc2cc(Nc3cccc4c3C(=O)N(CC(=O)NC(C)(C)C(F)(F)F)C4)ccc21 [Example 49, 2-[7-[(1-methylindazol-5-yl)amino]-1-oxo-isoindolin-2-yl]-N-(2,2,2-trifluoro-1,1-dimethyl-ethyl)acetamide]
A (pIC50>8)	A (pIC50>8)	–	–	Cn1ncc2cc(Nc3cccc4c3C(=O)N(CC(=O)N3CCC3C(F)(F)F)C4)ccc21 (stereo not shown) [Example 50, 7-[(1-methylindazol-5-yl)amino]-2-[2-oxo-2-[2-(trifluoromethyl)azetidin-1-yl]ethyl]isoindolin-1-one]
A (pIC50>8)	A (pIC50>8)	–	–	Cn1ncc2cc(Nc3cccc4c3C(=O)N(CC(=O)N3CCC[C@H]3C(F)(F)F)C4)cnc21 [Example 51, 7-[(1-methylpyrazolo[3,4-b]pyridin-5-yl)amino]-2-[2-oxo-2-[(2S)-2-(trifluoromethyl)pyrrolidin-1-yl]ethyl]isoindolin-1-one]
